Measured values taken from patent publication US5202315A, “Cephalosporin compounds” (Lucky, Ltd., priority 1989, dated 1993).
Values after ≈ are worked out from the molar mass of the structure shown.

How the values were obtained:
Experiment in all cases: Antibacterial activity, MIC
Format in all cases: cell-based
[1] = system: Morganella morganii ATCC 8076h; conditions: ATCC8076H, agar two-fold dilution, 37° C., 20 hours
Method: (§1) Also, the in vitro antibacterial activity was determined by the by a two-fold dilution method as described below:
(§2) That is, the two-fold serial dilutions of the compound were made dispersed in Muller-Hinton agar medium. 2 μl of standard test strain which had the 10^7 CFU per ml was inoculated on the medium, and was incubated at 37° C. for 20 hours.

[2] = system: Staphylococcus epidermidis ATCC 12228; conditions: ATCC12228, ATCC 12228, agar two-fold dilution, 37° C., 20 hours, read-out: MIC
Method: as §1, §2

[3] = system: Enterobacter cloacae ATCC 27508; conditions: ATCC27508, ATCC 27508, agar two-fold dilution, 37° C., 20 hours, read-out: MIC
Method: as §1, §2

[4] = system: Pseudomonas aeruginosa ATCC 25619; conditions: ATCC25619, ATCC 25619, agar two-fold dilution, 37° C., 20 hours, read-out: MIC
Method: as §1, §2

[5] = system: Klebsiella pneumoniae ATCC 10031; conditions: ATCC10031, ATCC 10031, agar two-fold dilution, 37° C., 20 hours, read-out: MIC
Method: as §1, §2

[6] = system: Salmonella typhimurium ATCC 14028; conditions: Salmonella enterica; ATCC 14028; agar two-fold dilution, 37° C., 20 hours; read-out: MIC
Method: as §1, §2

[7] = system: Micrococcus luteus ATCC 9341; conditions: ATCC9341, ATCC 9341, agar two-fold dilution, 37° C., 20 hours, read-out: MIC
Method: as §1, §2

[8] = system: Proteus vulgaris ATCC 6059; conditions: ATCC6059, ATCC 6059, agar two-fold dilution, 37° C., 20 hours, read-out: MIC
Method: as §1, §2

[9] = system: Shigella sonnei ATCC 11060; conditions: ATCC11060, ATCC 11060, agar two-fold dilution, 37° C., 20 hours, read-out: MIC
Method: as §1, §2

[10] = system: Shigella flexneri ATCC 11836; conditions: ATCC11836, agar two-fold dilution, 37° C., 20 hours
Method: as §1, §2

[11] = system: Proteus mirabilis ATCC 25933; conditions: ATCC25933, ATCC 25933, agar two-fold dilution, 37° C., 20 hours, read-out: MIC
Method: as §1, §2

[12] = system: Serratia marcescens ATCC 27117; conditions: ATCC27117, ATCC 27117, agar two-fold dilution, 37° C., 20 hours, read-out: MIC
Method: as §1, §2

[13] = system: Providencia rettgeri ATCC 9250; conditions: ATCC9250, agar two-fold dilution, 37° C., 20 hours
Method: as §1, §2

[14] = system: Enterobacter aerogenes ATCC 29751; conditions: Klebsiella aerogenes, ATCC29751; ATCC 29751; agar two-fold dilution, 37° C., 20 hours; read-out: MIC
Method: as §1, §2

[15] = system: Pseudomonas aeruginosa ATCC 27853; conditions: ATCC27853, ATCC 27853, agar two-fold dilution, 37° C., 20 hours, read-out: MIC
Method: as §1, §2

[16] = system: Bacillus megaterium ATCC 9885; conditions: Priestia megaterium, ATCC9885; ATCC 9885; agar two-fold dilution, 37° C., 20 hours; read-out: MIC
Method: as §1, §2

[17] = system: Staphylococcus aureus ATCC 10537; conditions: ATCC10537, ATCC 10537, agar two-fold dilution, 37° C., 20 hours, read-out: MIC
Method: as §1, §2

[18] = system: Citrobacter freundii ATCC 8090; conditions: ATCC8090, ATCC 8090, agar two-fold dilution, 37° C., 20 hours, read-out: MIC
Method: as §1, §2

[19] = system: Escherichia coli ATCC 25922; conditions: ATCC25922, agar two-fold dilution, 37° C., 20 hours
Method: as §1, §2

[20] = system: Pseudomonas aeruginosa ATCC 10145; conditions: ATCC10145, ATCC 10145, agar two-fold dilution, 37° C., 20 hours, read-out: MIC
Method: as §1, §2

[21] = system: Streptococcus faecalis ATCC 29212; conditions: Enterococcus faecalis, ATCC29212; ATCC 29212; agar two-fold dilution, 37° C., 20 hours; read-out: MIC
Method: as §1, §2

[22] = system: Bacillus cereus ATCC 11778; conditions: ATCC11778, ATCC 11778, agar two-fold dilution, 37° C., 20 hours, read-out: MIC
Method: as §1, §2

[23] = system: Staphylococcus aureus ATCC 6538p; conditions: ATCC6538P, ATCC 6538p, agar two-fold dilution, 37° C., 20 hours, read-out: MIC
Method: as §1, §2

[24] = system: Escherichia coli ATCC 10536; conditions: ATCC10536, agar two-fold dilution, 37° C., 20 hours
Method: as §1, §2

[25] = system: Acinetobacter calcoaceticus ATCC 15473; conditions: ATCC15473, ATCC 15473, agar two-fold dilution, 37° C., 20 hours, read-out: MIC
Method: as §1, §2

Row | Compound | MIC [1] | MIC [2] | MIC [3] | MIC [4] | MIC [5] | MIC [6] | MIC [7] | MIC [8] | MIC [9] | MIC [10] | MIC [11] | MIC [12] | MIC [13] | MIC [14] | MIC [15] | MIC [16] | MIC [17] | MIC [18] | MIC [19] | MIC [20] | other results
1 | CCO/N=C(\C(=O)NC1C(=O)N2C(C(=O)[O-])=C(CSc3nc(N)cc(N)[n+]3CC)CSC12)c1nsc(N)n1 (stereo not shown) [Compound I-21] | 0.016 µg/mL (≈ 0.0276 µM) | 0.13 µg/mL (≈ 0.224 µM) | 0.016 µg/mL (≈ 0.0276 µM) | 1 µg/mL (≈ 1.72 µM) | 0.016 µg/mL (≈ 0.0276 µM) | 0.5 µg/mL (≈ 0.861 µM) | 0.016 µg/mL (≈ 0.0276 µM) | 1 µg/mL (≈ 1.72 µM) | 0.25 µg/mL (≈ 0.431 µM) | 0.063 µg/mL (≈ 0.108 µM) | 1 µg/mL (≈ 1.72 µM) | 0.25 µg/mL (≈ 0.431 µM) | ≤ 0.008 µg/mL | 0.5 µg/mL (≈ 0.861 µM) | 2 µg/mL (≈ 3.44 µM) | 0.13 µg/mL (≈ 0.224 µM) | 0.25 µg/mL (≈ 0.431 µM) | 0.13 µg/mL (≈ 0.224 µM) | 0.13 µg/mL (≈ 0.224 µM) | 4 µg/mL (≈ 6.89 µM) | MIC [21]: 16 µg/mL (≈ 27.6 µM); MIC [22]: 16 µg/mL (≈ 27.6 µM); MIC [23]: 0.5 µg/mL (≈ 0.861 µM); MIC [24]: 0.13 µg/mL (≈ 0.224 µM); MIC [25]: 4 µg/mL (≈ 6.89 µM)
2 | CCC[n+]1c(N)cc(N)nc1SCC1=C(C(=O)[O-])N2C(=O)C(NC(=O)/C(=N\OCC)c3nsc(N)n3)C2SC1 (stereo not shown) [Compound I-22] | 0.031 µg/mL (≈ 0.0521 µM) | 0.25 µg/mL (≈ 0.42 µM) | 0.031 µg/mL (≈ 0.0521 µM) | 1 µg/mL (≈ 1.68 µM) | 0.016 µg/mL (≈ 0.0269 µM) | 2 µg/mL (≈ 3.36 µM) | 0.016 µg/mL (≈ 0.0269 µM) | 2 µg/mL (≈ 3.36 µM) | 0.5 µg/mL (≈ 0.841 µM) | 0.13 µg/mL (≈ 0.219 µM) | 2 µg/mL (≈ 3.36 µM) | 0.5 µg/mL (≈ 0.841 µM) | ≤ 0.008 µg/mL | 1 µg/mL (≈ 1.68 µM) | 4 µg/mL (≈ 6.73 µM) | 0.13 µg/mL (≈ 0.219 µM) | 0.5 µg/mL (≈ 0.841 µM) | 0.25 µg/mL (≈ 0.42 µM) | 0.25 µg/mL (≈ 0.42 µM) | 16 µg/mL (≈ 26.9 µM) | MIC [21]: 16 µg/mL (≈ 26.9 µM); MIC [22]: 16 µg/mL (≈ 26.9 µM); MIC [23]: 0.5 µg/mL (≈ 0.841 µM); MIC [24]: 0.25 µg/mL (≈ 0.42 µM); MIC [25]: 4 µg/mL (≈ 6.73 µM)
3 | C=CC[n+]1c(N)cc(N)nc1SCC1=C(C(=O)[O-])N2C(=O)C(NC(=O)/C(=N\OCC)c3nsc(N)n3)C2SC1 (stereo not shown) [Compound I-23] | 0.031 µg/mL (≈ 0.0523 µM) | 0.25 µg/mL (≈ 0.422 µM) | 0.031 µg/mL (≈ 0.0523 µM) | 2 µg/mL (≈ 3.37 µM) | 0.031 µg/mL (≈ 0.0523 µM) | 2 µg/mL (≈ 3.37 µM) | 0.016 µg/mL (≈ 0.027 µM) | 1 µg/mL (≈ 1.69 µM) | 0.5 µg/mL (≈ 0.844 µM) | 0.13 µg/mL (≈ 0.219 µM) | 2 µg/mL (≈ 3.37 µM) | 1 µg/mL (≈ 1.69 µM) | ≤ 0.008 µg/mL | 2 µg/mL (≈ 3.37 µM) | 8 µg/mL (≈ 13.5 µM) | 0.25 µg/mL (≈ 0.422 µM) | 1 µg/mL (≈ 1.69 µM) | 0.25 µg/mL (≈ 0.422 µM) | 0.25 µg/mL (≈ 0.422 µM) | 16 µg/mL (≈ 27 µM) | MIC [21]: 32 µg/mL (≈ 54 µM); MIC [22]: 16 µg/mL (≈ 27 µM); MIC [23]: 1 µg/mL (≈ 1.69 µM); MIC [24]: 0.5 µg/mL (≈ 0.844 µM); MIC [25]: 8 µg/mL (≈ 13.5 µM)
4 | CO/N=C(\C(=O)NC1C(=O)N2C(C(=O)[O-])=C(CSc3nc(N)cc(N)[n+]3C)CSC12)c1nsc(N)n1 (stereo not shown) [Compound I-24] | 0.063 µg/mL (≈ 0.114 µM) | 0.25 µg/mL (≈ 0.452 µM) | 0.063 µg/mL (≈ 0.114 µM) | 4 µg/mL (≈ 7.24 µM) | 0.031 µg/mL (≈ 0.0561 µM) | 0.5 µg/mL (≈ 0.905 µM) | 0.13 µg/mL (≈ 0.235 µM) | 1 µg/mL (≈ 1.81 µM) | 0.13 µg/mL (≈ 0.235 µM) | 0.031 µg/mL (≈ 0.0561 µM) | 1 µg/mL (≈ 1.81 µM) | 0.25 µg/mL (≈ 0.452 µM) | 0.016 µg/mL (≈ 0.029 µM) | 1 µg/mL (≈ 1.81 µM) | 4 µg/mL (≈ 7.24 µM) | 0.25 µg/mL (≈ 0.452 µM) | 0.5 µg/mL (≈ 0.905 µM) | 0.13 µg/mL (≈ 0.235 µM) | 0.13 µg/mL (≈ 0.235 µM) | 16 µg/mL (≈ 29 µM) | MIC [21]: 32 µg/mL (≈ 57.9 µM); MIC [22]: 32 µg/mL (≈ 57.9 µM); MIC [23]: 0.5 µg/mL (≈ 0.905 µM); MIC [24]: 0.13 µg/mL (≈ 0.235 µM); MIC [25]: 2 µg/mL (≈ 3.62 µM)
